Data on 2 compounds can be found in patent US20060293335A1 (priority 2002, published 2006).

For data set [1] the following is noted: for urinary riboflavin excretion: i.m., riboflavin-free diet.
The subject of data set [2] is blood glutathione reductase activity coefficient (BGRAC).
In the next data set the test system is Male wistar Rats. The following applies: medium and high LRM injected. The method, then:
60 Wistar rats weighing 64.5±4.6 g were used in the experiment. […] The rats were weighed every 6 days. […] The blood glutathione reductase activity coefficient (BGRAC) was measured.

The test system of data set [3] is oral ulcer after bone marrow transplantation. To be noted: 28 leukemia cases with bone marrow transplantation; 150 mg LRM injected. The method, then: 28 cases of leukemia with bone marrow transplantation were recruited. 150 mg LRM was injected for prevention of catarrh.
The test system of data set [4] is oral ulcer after chemotherapy. The method, then: 35 cases of acute lymphocytic leukemia and 13 cases of acute nonlymphocytic leukemia (6 M2 cases, 3 M3 cases, 2 M4 cases and 2 M5 cases) were also included.
Treatment: Regular chemotherapies, such as CODPL, HDMTX, DA were adopted. Other chemotherapies regimens were not listed. Tetrahydrofolate folic calcium was used to against the toxicity of HDMTX (hige-dose MTX). Hydration and alkalinizing of urine were performed in all patients by Dobll's solution. 5% NaHCO3 and 3% peroxide hydrogen were used to rinse the mouth alternatively.

Test in data set [5]: not given
The source holds these as a separate data set.

Where [6] appears, read: day 15, medium dosage (5.01 g for 90 days per rat as printed; riboflavin group same dosage).
Where [7] appears, read: day 30, medium dosage (riboflavin group same dosage).
The mark [8] stands for this setting: day 60, medium dosage (riboflavin group same dosage).
[9] abbreviates: day 90, medium dosage (riboflavin group same dosage).

SMILES strings stand for the structures. Like-named read-outs stand apart in the source and are kept apart here.

As to `Cc1cc2nc3c(=O)[nH]c(=O)nc-3n(C[C@H](O)[C@H](O)[C@H](O)CO)c2cc1C` [Riboflavin, riboflavin, reference compound], the food intake result (riboflavin group (FIG. 1)) was “did not drop until 25 days later and still more than that in the riboflavin deficiency group”. For the same compound, the urinary riboflavin excretion in data set [1] (setting [6]) is 4.0 ± 1.4 μg per rat per day; in data set [1] (setting [7]), 7.8 ± 1.6 μg per rat per day; in data set [1] (setting [8]), 4.5 ± 0.9 μg per rat per day; in data set [1] (setting [9]), 4.2 ± 0.9 μg per rat per day. In addition, in data set [2] (riboflavin group, during the first 30 days (FIG. 3)), the “BGRAC, course and comparison” value was “gradually increased and significantly higher than that in the LRM groups and lower than that in the riboflavin deficiency group”.
On to `CCCCCCCCCCCC(=O)OC[C@@H](O)[C@@H](O)[C@@H](O)Cn1c2nc(=O)[nH]c(=O)c-2nc2cc(C)c(C)cc21` [LRM, 5′-lauric acid monoester of riboflavin], for which the food-intake result (low dosage LRM group, after 30 days) is recorded as “decreased”. Moreover, the weight gain result (medium and high dosage LRM groups) is given as “gained weight significantly”. For the same compound, the “gain of body weight” value (medium dosage LRM group, at the end of the experiment (FIG. 2)) is recorded as “lower than that of the high dosage LRM group”. The food intake result runs as follows: (medium dosage LRM group, in the last few days) “decreased and was lower than that of the high dosage LRM group”; (the three LRM groups (FIG. 1)) “higher than the riboflavin group and the riboflavin deficiency group”. For the same compound, the “release of free riboflavin in the body” value with Male wistar Rats is “could slowly release free riboflavin and meet the demand of the body”. The “cases that suffered oral ulcer” value in data set [3] came to 4 cases. The “share of cases that suffered oral ulcer” value in data set [3] is recorded as 14.3%. Besides, the “riboflavin discharged in urine compared with riboflavin deficiency group” value in data set [1] (after 15 days, riboflavin group, low and medium dosage LRM groups) was “higher than that in the riboflavin deficiency group”. Besides, the urinary riboflavin excretion in data set [1] (day 15, high dosage (double of medium)) stood at 217.9 ± 60.2 μg per rat per day; in data set [1] (day 15, low dosage (half of medium)), 5.6 ± 1.3 μg per rat per day; in data set [1] (setting [6]), 34.8 ± 12.2 μg per rat per day; in data set [1] (day 30, high dosage (double of medium)) it was 9.8 ± 3.5 μg per rat per day; in data set [1] (day 30, low dosage (half of medium)), 4.1 ± 0.8 μg per rat per day; in data set [1] (setting [7]) it was 5.0 ± 1.2 μg per rat per day. Besides, the urinary riboflavin excretion in data set [1] (day 60, high dosage (double of medium)) is listed as 9.9 ± 2.0 μg per rat per day; in data set [1] (day 60, low dosage (half of medium)), 5.4 ± 1.3 μg per rat per day; in data set [1] (setting [8]), 7.8 ± 1.3 μg per rat per day; in data set [1] (day 90, high dosage (double of medium)) it was 5.9 ± 1.2 μg per rat per day; in data set [1] (day 90, low dosage (half of medium)), 5.1 ± 0.9 μg per rat per day; in data set [1] (setting [9]) it was 4.6 ± 1.1 μg per rat per day. The “urinary riboflavin excretion, course over time” value in data set [1] (high dosage LRM group) is “markedly increased at the 15th day and then rapidly decreased after the 30 days”. Besides, the “Occurrence (%) of oral ulcer” value in data set [4] (ALL, LRM treated before chemotherapy (150 mg i.m.)) was determined as 0%; in data set [4] (ALL, LRM treated in recent 3 months), 7.1%; in data set [4] (ANLL, LRM treated before chemotherapy (150 mg i.m.)), 0%; in data set [4] (ANLL, LRM treated in 3 months) it was 12.5%. The “Ulcer observed (times)” value was found to be 0 times in data set [4] (ALL, LRM treated before chemotherapy (150 mg i.m.), 18 chemotherapies); 3 times in data set [4] (ALL, LRM treated in recent 3 months, 42 chemotherapies); 0 times in data set [4] (ANLL, LRM treated before chemotherapy (150 mg i.m.), 8 chemotherapies); 1 times in data set [4] (ANLL, LRM treated in 3 months, 8 chemotherapies). The “prevention of oral ulcer after chemotherapy” value in data set [4] (LRM treatment prior to chemotherapy) was “could effectively prevent the occurrence of oral ulcer after chemotherapy”. For the same compound, the “incidence of oral ulcer” value in data set [4] (within 3 months after chemotherapy) is listed as “could effectively decrease the incidence of oral ulcer”. In data set [5] (high dosage LRM group (FIG. 4)), the “riboflavin content in plasma, course” value is “first elevated and then declined”. In addition, in data set [5] (riboflavin group, low and medium dosage LRM groups (FIG. 4)), the “content of riboflavin in plasma, course” value is on record as “decline”. Further, in data set [2] (low, medium and high dosage LRM groups (FIG. 3)), the “BGRAC, course and order of groups” value is “elevated, in the order as follows the low dosage LRM group>the medium dosage LRM group>the high dosage LRM group”.
